From PMC13266999, “Designing Antibiotics with Inherent Resistance to Efflux as a Strategy to Revive Discovery against Multidrug-Resistant Pathogens” (Journal of Medicinal Chemistry, 2026)
Values after ≈ are worked out from the molar mass of the structure shown. Like-named read-outs stand apart in the source and are kept apart here.

How the values were obtained:
S. aureus [1] = assay: Serial passaging, MIC of adapted strains; format: cell-based; settings: Staphylococcus aureus
Description: MICs were performed on the first and 10th passage.

K. pneumoniae = assay: MIC (microbroth dilution); format: cell-based, Klebsiella pneumoniae; settings: Klebsiella pneumoniae, read-out: MIC
Description: (§1) All bacteria were maintained on tryptic soy agar (TSA), except Streptococcus spp., which were maintained on Columbia agar plates containing 5% horse blood. […] Bacteria were grown to stationary phase in liquid culture overnight, with shaking at 200 rpm, before being back diluted to the relevant starting concentration for each assay below. MICs were measured by the microbroth dilution method. […] Absorbance at OD600 was read on a CLARIOstar spectrophotometer (BMG Labtech) and the MIC was defined as the minimum concentration of compound where no visible growth was detected. […] MICs were also performed in the presence of the outer membrane permeator, polymyxin b nonapeptide (PMBN) following the same MIC method but with the following variation. The 2-fold dilution series of compound was prepared as above, then 50 μL of PMBN at a final concentration of 30 μg/mL was added to relevant wells, while 50 μL/well of blank media was added to the remaining wells. Bacteria were then added at 50 μL/well for a starting concentration as above. […] The MICs were read and defined as above. All animal procedures were performed by the contract research organization Pharmacology Discovery Services Taiwan in accordance with the Guide for the Care and Use of Laboratory Animals. The procedures were approved by the Institutional Ethics Committee of Pharmacology Discovery Services Taiwan, Ltd. (approval no. AB127662), in compliance with animal welfare legislation in Taiwan.

E. coli [2] = assay: MIC (microbroth dilution); format: cell-based; settings: Escherichia coli
Description: as §1

Pharmacokinetics = settings: male, ICR (CD-1), mouse
Description: Pharmacokinetic studies were performed in male ICR (CD-1) mice obtained from Charles River, UK. […] Blood samples were collected from the caudal vein into anticoagulant-treated capillaries at predetermined time points up to 8 h, with terminal cardiac puncture at 8 h. Plasma samples were stored at −80 °C until analysis. […] A compound-specific LC-MS/MS method was developed for each test article using matrix-matched calibrators following protein precipitation of samples.

S. aureus [3] = assay: Mutation frequency and agar MIC; format: cell-based
Description: (§2) Mutation frequencies were performed on solid media at supra-inhibitory concentrations. First, the agar MIC was performed to account for any issues in solubility of compounds in solid media. Agar plates were prepared with 2-fold dilutions of compound.
(§3) For the mutation frequency assay, bacteria from an overnight culture were grown to mid exponential phase in liquid broth, then 100 μL was spread onto an agar plate containing compound at concentrations above the agar MIC. A Miles-Misra was also conducted on an antibiotic-free agar plate to determine the CFU/mL of the starting population. […] The mutation frequency was calculated by dividing the number of colonies on supra inhibitory con-centration plates by the starting population.

A. baumannii = assay: Mutation frequency and agar MIC; format: cell-based; settings: A118
Description: as §2, §3

E. coli [4] = assay: Mutation frequency and agar MIC; format: cell-based
Description: as §2, §3

Acinetobacter baumannii = assay: MIC (microbroth dilution); format: cell-based
In short: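 Broth microdilution MICs were run in tryptic soy broth, or for Streptococcus spp. in cation-adjusted Mueller Hinton broth with 2.5% lysed horse blood, using overnight stationary-phase cultures back-diluted. MIC was the lowest concentration with no visible growth, with OD600 also read. Some MICs included PMBN at 30 μg/mL final.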

C[C@H]1COc2c(N3CC[C@@H](Nc4ncccn4)C3)c(F)cc3c(=O)c(C(=O)O)cn1c23 [Compound 46, (S)-9-Fluoro-3-methyl-7-oxo-10-((R)-3-(pyrimidin-2-ylamino)pyrrolidin-1-yl)-2,3-dihydro-7H-[1,4]oxazino[2,3,4-ij]quinoline-6-carboxylic acid]
MIC (S. aureus [1]; 1199B WT): 0.015 mg/L | MIC (S. aureus [1]; 1199B adapted to 4 x MIC of Compound 7): 0.03 mg/L | MIC (S. aureus [1]; 1199B adapted to 4 x MIC of Compound 46): 0.125 mg/L | MIC (S. aureus [1]; 1199B adapted to 4 x MIC of Compound 50): 0.25 mg/L | MIC (S. aureus [1]; 1199B adapted to 4 x MIC of Compound 51): 0.06 mg/L | MIC (S. aureus [1]; 1199 WT): 0.008 mg/L | MIC (S. aureus [1]; 1199 adapted to 4 x MIC of Compound 7): 0.015 mg/L | MIC (S. aureus [1]; 1199 adapted to 4 x MIC of Compound 46): 0.03 mg/L | MIC (S. aureus [1]; 1199 adapted to 4 x MIC of Compound 50): 0.125 mg/L | MIC (S. aureus [1]; 1199 adapted to 4 x MIC of Compound 51): 0.03 mg/L | MIC (S. aureus [1]; NCTC13616, NCTC 13616 WT): 0.5 mg/L | MIC (S. aureus [1]; NCTC13616, NCTC 13616 adapted to 4 x MIC of Compound 7): 0.5 mg/L | MIC (S. aureus [1]; NCTC13616, NCTC 13616 adapted to 4 x MIC of Compound 46): 0.5 mg/L | MIC (S. aureus [1]; NCTC13616, NCTC 13616 adapted to 4 x MIC of Compound 50): 0.5 mg/L | MIC (S. aureus [1]; NCTC13616, NCTC 13616 adapted to 4 x MIC of Compound 51): 2 mg/L | MIC (K. pneumoniae; M6): 1 to 2 mg/L (≈ 2.35 to 4.7 µM) | MIC (K. pneumoniae; NCTC13368, NCTC 13368): 8 mg/L (≈ 18.8 µM) | MIC (K. pneumoniae; TW3): 1 mg/L (≈ 2.35 µM) | MIC (E. coli [2]; 319238/UR): 16 mg/L (≈ 37.6 µM) | MIC (E. coli [2]; LEC006): 0.125 mg/L (≈ 0.294 µM) | MIC (E. coli [2]; LEC007): 0.125 mg/L (≈ 0.294 µM) | MIC (E. coli [2]; LEC077): 4 mg/L (≈ 9.4 µM) | MIC (E. coli [2]; LEC081): 2 mg/L (≈ 4.7 µM) | MIC (E. coli [2]; NCTC10418, NCTC 10418): ≤ 0.06 mg/L | MIC (E. coli [2]; NCTC11954, NCTC 11954): 0.125 mg/L (≈ 0.294 µM) | MIC (E. coli [2]; NCTC12241, NCTC 12241): 0.06 mg/L (≈ 0.141 µM) | MIC (E. coli [2]; NCTC12923, NCTC 12923): 0.25 to 0.5 mg/L (≈ 0.588 to 1.18 µM) | half-life (Pharmacokinetics; in vivo, po, 20 mg/kg): 5.1 h | AUC(0-inf) (Pharmacokinetics; plasma, iv, 5 mg/kg): 15.7 µg·h/mL | bioavailability (Pharmacokinetics; plasma, po, 20 mg/kg): 49.3% | Agar MIC (S. aureus [3]; ATCC 9144): 0.008 mg/L | Agar MIC (S. aureus [3]; NCTC 13616): 0.5 mg/L | Agar MIC (A. baumannii): 0.03 mg/L | Agar MIC (E. coli [4]; NCTC 12241): 0.03 mg/L | Agar MIC (E. coli [4]; NCTC 12923): 0.12 mg/L | MIC (Acinetobacter baumannii; Acinetobacter baumannii, 86, oxa23, read-out: MIC): 8 mg/L (≈ 18.8 µM) | MIC (Acinetobacter baumannii; Acinetobacter baumannii, 96, oxa23, read-out: MIC): 4 mg/L (≈ 9.4 µM) | MIC (Acinetobacter baumannii; Acinetobacter baumannii, 113, oxa23, read-out: MIC): 4 mg/L (≈ 9.4 µM) | MIC (Acinetobacter baumannii; Acinetobacter baumannii, A118, read-out: MIC): ≤ 0.06 mg/L | MIC (Acinetobacter baumannii; Acinetobacter baumannii, A318, read-out: MIC): 8 mg/L (≈ 18.8 µM) | MIC (Acinetobacter baumannii; Acinetobacter baumannii, A319, read-out: MIC): 8 mg/L (≈ 18.8 µM) | MIC (Acinetobacter baumannii; Acinetobacter baumannii, A600 colR, read-out: MIC): 4 mg/L (≈ 9.4 µM) | MIC (Acinetobacter baumannii; Acinetobacter baumannii, A601 colS, read-out: MIC): ≤ 0.06 mg/L | MIC (Acinetobacter baumannii; Acinetobacter baumannii, AB01335 adeG183::T26): 4 mg/L (≈ 9.4 µM) | MIC (Acinetobacter baumannii; Acinetobacter baumannii, AB5075-UW, read-out: MIC): 4 mg/L (≈ 9.4 µM) | MIC (Acinetobacter baumannii; Acinetobacter baumannii, AB05215 adeS132::T26): 4 mg/L (≈ 9.4 µM) | MIC (Acinetobacter baumannii; Acinetobacter baumannii, AB05218 adeS141::T26): 4 mg/L (≈ 9.4 µM) | MIC (Acinetobacter baumannii; Acinetobacter baumannii, AB05219 adeR103::T26): 4 mg/L (≈ 9.4 µM) | MIC (Acinetobacter baumannii; Acinetobacter baumannii, AB05222 adeR160::T101): 4 mg/L (≈ 9.4 µM) | MIC (Acinetobacter baumannii; Acinetobacter baumannii, AB05226 adeA165::T26): 4 mg/L (≈ 9.4 µM) | MIC (Acinetobacter baumannii; Acinetobacter baumannii, AB05227 adeA138::T26): 2 mg/L (≈ 4.7 µM) | MIC (Acinetobacter baumannii; Acinetobacter baumannii, AB05228 adeB150::T26): 1 mg/L (≈ 2.35 µM) | MIC (Acinetobacter baumannii; Acinetobacter baumannii, AB05230 adeB181::T26): 1 mg/L (≈ 2.35 µM) | MIC (Acinetobacter baumannii; Acinetobacter baumannii, ATCC17978, ATCC 17978, read-out: MIC): ≤ 0.25 mg/L | MIC (Acinetobacter baumannii; Acinetobacter baumannii, BAA1709, BAA-1709, read-out: MIC): 0.125 mg/L (≈ 0.294 µM) | MIC (Acinetobacter baumannii; Acinetobacter baumannii, BAA1710, BAA-1710 (AYE), read-out: MIC): 4 mg/L (≈ 9.4 µM) | MIC (Acinetobacter baumannii; Acinetobacter baumannii, BAA2093, BAA-2093, read-out: MIC): 0.03 to 0.06 mg/L (≈ 0.0705 to 0.141 µM) | MIC (Acinetobacter baumannii; Acinetobacter baumannii, NCTC10303, NCTC 10303, read-out: MIC): ≤ 0.06 mg/L | MIC (Acinetobacter baumannii; Acinetobacter baumannii, NCTC12156, NCTC 12156, read-out: MIC): 0.125 mg/L (≈ 0.294 µM) | MIC (Acinetobacter baumannii; Acinetobacter baumannii, NCTC13302, NCTC 13302, oxa24, read-out: MIC): 4 mg/L (≈ 9.4 µM) | MIC (Acinetobacter baumannii; Acinetobacter baumannii, NCTC13424, NCTC 13424, oxa23, read-out: MIC): > 64 mg/L | MIC (Acinetobacter baumannii; Acinetobacter baumannii, T strain, read-out: MIC): 8 mg/L (≈ 18.8 µM) | MIC (Acinetobacter baumannii; Acinetobacter baumannii, UKA1, oxa23, read-out: MIC): 4 mg/L (≈ 9.4 µM) | MIC (Acinetobacter baumannii; Acinetobacter baumannii, UKA2, Low resistance, read-out: MIC): 8 mg/L (≈ 18.8 µM) | MIC (Acinetobacter baumannii; Acinetobacter baumannii, UKA9, read-out: MIC): ≤ 0.06 mg/L | MIC (Acinetobacter baumannii; Acinetobacter baumannii, UKA12, oxa23, read-out: MIC): 2 mg/L (≈ 4.7 µM) | MIC (Acinetobacter baumannii; Acinetobacter baumannii, UKA13, oxa23, read-out: MIC): 2 mg/L (≈ 4.7 µM) | MIC (Acinetobacter baumannii; Acinetobacter baumannii, UKA15, oxa23, read-out: MIC): 1 mg/L (≈ 2.35 µM) | MIC (Acinetobacter baumannii; Acinetobacter baumannii, UKA19, read-out: MIC): 0.25 mg/L (≈ 0.588 µM) | MIC (Acinetobacter baumannii; Acinetobacter baumannii, W1, read-out: MIC): 4 mg/L (≈ 9.4 µM)
